From patent publication US20260256792A1, “TREATMENT OF CHRONIC SPONTANEOUS URTICARIA BY ADMINISTERING (R)-2-[3-[4-AMINO-3-(2-FLUORO-4-PHENOXY-PHENYL)PYRAZOLO[3,4-D]PYRIMIDIN-1-YL]PIPERIDINE-1-CARBONYL]-4-METHYL-4-[4-(OXETAN-3-YL)PIPERAZIN-1-YL]PENT-2-ENENITRILE” (priority 2023, published 2026)

Tested on: moderate-to-severe chronic spontaneous urticaria (CSU)
Experiment: Phase 2 CSU study: Patient Global Impression of Severity (PGIS)
Assay type: in vivo, human
Conditions: for PGIS Change from baseline LS Mean (SE) / PGIS % Change difference for rilzabrutinib vs. placebo LS Mean (95% CI) / PGIS % Change from baseline LS Mean (SE) / PGIS Change difference for rilzabrutinib vs. placebo LS Mean (95% CI): omalizumab-naïve, ANCOVA; for PGIS Change from baseline Mean (SD) / PGIS Change from baseline Median / PGIS Median / PGIS Percent change from baseline Mean (SD) / PGIS Percent change from baseline Median / PGIS category Mild, patients / PGIS category Moderate, patients / PGIS category None, patients / PGIS category Severe, patients: omalizumab-naïve population
Description: The study comprises a 12 week, randomized, double-blind, placebo-controlled, multi-center, dose-ranging efficacy and safety phase, followed by a 40 week open label extension (OLE) phase (see FIG. 1).
The study consists of three phases and an optional OLE phase.
The PGIS is a 1-item measure that asks participants to provide a self-assessment of their overall CSU severity for the past week on a 4 point scale. Response choices are: “None”, “Mild”, “Moderate” and “Severe”. The PGIC is a 1-item measure that asks the participant to provide a self-assessment of overall change in their CSU since the participant started taking the study medication on a 7-point scale. The response options range from “Very Much Better” to “Very Much Worse.” Patients were to complete questionnaires for the 2 items during their site visit.

SMILES: CC(C)(C=C(C#N)C(=O)N1CCC[C@@H](n2nc(-c3ccc(Oc4ccccc4)cc3F)c3c(N)ncnc32)C1)N1CCN(C2COC2)CC1 [rilzabrutinib, (R)-2-[3-[4-amino-3-(2-fluoro-4-phenoxy-phenyl)pyrazolo[3,4-d]pyrimidin-1-yl]piperidine-1-carbonyl]-4-methyl-4-[4-(oxetan-3-yl)piperazin-1-yl]pent-2-enenitrile]
- PGIS Change from baseline LS Mean (SE) (Week 4, 400 mg TID): −0.96 (0.13)
- PGIS Change from baseline Mean (SD) (Week 8, 400 mg BID): −1.00
- PGIS Change from baseline Median (Week 8, 400 mg BID): −1.00
- PGIS Median (Week 8, 400 mg BID): 1.00
- PGIS Percent change from baseline Mean (SD) (Week 8, 400 mg BID): −44.95%
- PGIS Percent change from baseline Median (Week 8, 400 mg BID): −50.00%
- PGIS category Mild, patients (Week 8, 400 mg BID): 13 (39.4)
- PGIS category Moderate, patients (Week 8, 400 mg BID): 7 (21.2)
- PGIS category None, patients (Week 8, 400 mg BID): 9 (27.3)
- PGIS category Severe, patients (Week 8, 400 mg BID): 4 (12.1)
- PGIS % Change difference for rilzabrutinib vs. placebo LS Mean (95% CI) (Week 8, 400 mg BID): −12.18 (−30.63, 6.27) %
- PGIS % Change from baseline LS Mean (SE) (Week 8, 400 mg BID): −46.44 (6.74) %
- PGIS Change difference for rilzabrutinib vs. placebo LS Mean (95% CI) (Week 8, 400 mg BID): −0.25 (−0.67, 0.16)
- PGIS Change from baseline Mean (SD) (Week 8, 400 mg QPM): 0.67
- PGIS Change from baseline Median (Week 8, 400 mg QPM): −1.00
- PGIS Median (Week 8, 400 mg QPM): 2.00
- PGIS Percent change from baseline Mean (SD) (Week 8, 400 mg QPM): −25.25%
- PGIS Percent change from baseline Median (Week 8, 400 mg QPM): −33.33%
- PGIS category Mild, patients (Week 8, 400 mg QPM): 10 (30.3)
- PGIS category Moderate, patients (Week 8, 400 mg QPM): 14 (42.4)
- PGIS category None, patients (Week 8, 400 mg QPM): 1 (3.0)
- PGIS category Severe, patients (Week 8, 400 mg QPM): 8 (24.2)
- PGIS % Change difference for rilzabrutinib vs. placebo LS Mean (95% CI) (Week 8, 400 mg QPM): 9.27 (−9.09, 27.62) %
- PGIS % Change from baseline LS Mean (SE) (Week 8, 400 mg QPM): −24.99 (6.69) %
- PGIS Change difference for rilzabrutinib vs. placebo LS Mean (95% CI) (Week 8, 400 mg QPM): 0.24 (−0.17, 0.65)
- PGIS Change from baseline LS Mean (SE) (Week 8, 400 mg QPM): −0.61 (0.15)
- PGIS Change from baseline Mean (SD) (Week 8, 400 mg TID): −1.13
- PGIS Change from baseline Median (Week 8, 400 mg TID): −1.00
- PGIS Median (Week 8, 400 mg TID): 1.00
- PGIS Percent change from baseline Mean (SD) (Week 8, 400 mg TID): 47.22%
- PGIS Percent change from baseline Median (Week 8, 400 mg TID): −50.00%
- PGIS category Mild, patients (Week 8, 400 mg TID): 12 (40.0)
- PGIS category Moderate, patients (Week 8, 400 mg TID): 8 (26.7)
- PGIS category None, patients (Week 8, 400 mg TID): 6 (20.0)
- PGIS category Severe, patients (Week 8, 400 mg TID): 4 (13.3)
- PGIS % Change difference for rilzabrutinib vs. placebo LS Mean (95% CI) (Week 8, 400 mg TID): −11.39 (−30.26, 7.48) %
- PGIS % Change from baseline LS Mean (SE) (Week 8, 400 mg TID): −45.65 (7.05) %
- PGIS Change difference for rilzabrutinib vs. placebo LS Mean (95% CI) (Week 8, 400 mg TID): −0.17 (−0.58, 0.25)
- PGIS Change from baseline LS Mean (SE) (Week 8, 400 mg TID): −1.02 (0.15)
- PGIS Change from baseline Mean (SD) (Week 12, 400 mg BID): −1.03
- PGIS Change from baseline Median (Week 12, 400 mg BID): −1.00
- PGIS Median (Week 12, 400 mg BID): 1.00
- PGIS Percent change from baseline Mean (SD) (Week 12, 400 mg BID): −43.55%
- PGIS Percent change from baseline Median (Week 12, 400 mg BID): −50.00%
- PGIS category Mild, patients (Week 12, 400 mg BID): 6 (19.4)
- PGIS category Moderate, patients (Week 12, 400 mg BID): 10 (32.3)
- PGIS category None, patients (Week 12, 400 mg BID): 12 (38.7)
- PGIS category Severe, patients (Week 12, 400 mg BID): 3 (9.7)
- PGIS % Change difference for rilzabrutinib vs. placebo LS Mean (95% CI) (Week 12, 400 mg BID): −13.46 (−33.69, 6.76) %
- PGIS % Change from baseline LS Mean (SE) (Week 12, 400 mg BID): −45.76 (7.46) %
- PGIS Change difference for rilzabrutinib vs. placebo LS Mean (95% CI) (Week 12, 400 mg BID): −0.34 (−0.77, 0.10)
- PGIS Change from baseline LS Mean (SE) (Week 12, 400 mg BID): −1.14 (0.16)
- PGIS Change from baseline Mean (SD) (Week 12, 400 mg QPM): −0.68
- PGIS Change from baseline Median (Week 12, 400 mg QPM): −1.00
- PGIS Median (Week 12, 400 mg QPM): 2.00
- PGIS Percent change from baseline Mean (SD) (Week 12, 400 mg QPM): −27.45%
- PGIS Percent change from baseline Median (Week 12, 400 mg QPM): −33.33%
- PGIS category Mild, patients (Week 12, 400 mg QPM): 10 (29.4)
- PGIS category Moderate, patients (Week 12, 400 mg QPM): 15 (44.1)
- PGIS category None, patients (Week 12, 400 mg QPM): 1 (2.9)
- PGIS category Severe, patients (Week 12, 400 mg QPM): 8 (23.5)
- PGIS % Change difference for rilzabrutinib vs. placebo LS Mean (95% CI) (Week 12, 400 mg QPM): 5.87 (−13.65, 25.38) %
- PGIS % Change from baseline LS Mean (SE) (Week 12, 400 mg QPM): −26.42 (7.16) %
- PGIS Change difference for rilzabrutinib vs. placebo LS Mean (95% CI) (Week 12, 400 mg QPM): 0.21 (−0.22, 0.63)
- PGIS Change from baseline LS Mean (SE) (Week 12, 400 mg QPM): −0.59 (0.15)
- PGIS Change from baseline Mean (SD) (Week 12, 400 mg TID): −1.17
- PGIS Change from baseline Median (Week 12, 400 mg TID): −1.00
- PGIS Median (Week 12, 400 mg TID): 1.00
- PGIS Percent change from baseline Mean (SD) (Week 12, 400 mg TID): −47.22%
- PGIS Percent change from baseline Median (Week 12, 400 mg TID): −50.00%
- PGIS category Mild, patients (Week 12, 400 mg TID): 13 (43.3)
- PGIS category Moderate, patients (Week 12, 400 mg TID): 8 (26.7)
- PGIS category None, patients (Week 12, 400 mg TID): 6 (20.0)
- PGIS category Severe, patients (Week 12, 400 mg TID): 3 (10.0)
- PGIS % Change difference for rilzabrutinib vs. placebo LS Mean (95% CI) (Week 12, 400 mg TID): −12.67 (−32.97, 7.63) %
- PGIS % Change from baseline LS Mean (SE) (Week 12, 400 mg TID): −44.96 (7.44) %
- PGIS Change difference for rilzabrutinib vs. placebo LS Mean (95% CI) (Week 12, 400 mg TID): −0.24 (−0.67, 0.19)
- PGIS Change from baseline LS Mean (SE) (Week 12, 400 mg TID): −1.04 (0.16)
